From patent publication EP0187355A1, “Process for preparing beta-lactam antibiotics” (E.R. Squibb & Sons, Inc., priority 1981, dated 1982)
Counter-ions that a name gives are not always drawn. Like-named read-outs stand apart in the source and are kept apart here.

Legend:
Assay in all cases: MIC, agar dilution
Type in all cases: cell-based
Micrococcus luteus, 2495 = conditions: Micrococcus luteus, 2495, 18 h, K-10 agar, 10^4 CFU, 37°C, read-out: M.I.C.
Protocol: (§1) The following methodology is used to determine the minimum inhibitory concentration (hereinafter referred to as MIC) of the […] of this invention.
(§2) The test organisms are grown in approximately 15-20 ml of Antibiotic Assay broth (Difco) by inoculating (in tubes) the broth with a loopful of the organism from a BHI (Difco) agar slant. The inoculated tubes are incubated at 37°C for 18 to 20 hours. These cultures are assumed to contain 10^9 colony forming units (hereinafter CFU) per milliliter. The cultures are diluted 1:100 to give a final inoculum level of 10^4 CFU; dilutions are made with K-10 broth^*.
(§3) The compounds are dissolved in the appropriate diluent at a concentration of 1000 µg/ml. Twofold dilutions are made in K-10 broth resulting in a range from 1000 µg/ml to 0.5 µg/ml. 1.5 ml of each dilution is placed into individual square petri dishes to which 13.5 ml of K-10 agar^** is added. The final drug concentration in the agar ranges from 100 µg/ml to 0.05 µg/ml. Organism growth control plates containing agar only are prepared and inoculated before and after the test plates. The organisms are applied to the agar surface of each plate with the Denley Multipoint Inoculator (which delivers approximately 0.001 ml of each organism) resulting in a final inoculum level of 10^4 CFU on the agar surface.
(§4) The MIC is the lowest concentration of compound inhibiting growth of the organism.
(§5) The number following each organism refers to the number of the organism in the collection of E. R. Squibb & Sons,.Inc., Princeton, New Jersey. […] The symbol "N.T." means not tested.

[1] = tested on: Enterobacter cloacae, 8236; conditions: Enterobacter cloacae, 8236, 18 h, K-10 agar, 10^4 CFU, 37°C
Protocol: as §1, §2, §3, §4, §5

[2] = tested on: Streptococcus agalactiae, 9287; conditions: Streptococcus agalactiae, 9287, 18 h, K-10 agar, 10^4 CFU, 37°C, read-out: M.I.C.
Protocol: as §1, §2, §3, §4, §5

Escherichia coli, 10857 = conditions: Escherichia coli, 10857, 18 h, K-10 agar, 10^4 CFU, 37°C
Protocol: as §1, §2, §3
(§6) The plates are incubated at 37 °C for 18 hours and the MIC's are determined. The MIC is the lowest concentration of compound inhibiting growth of the organism.
as §5, with “The tables that follow are tabulated results obtained when the B-lactams of this invention are tested against various organisms. The number” for “The number”

[3] = tested on: Staphylococcus aureus, 10165; conditions: Staphylococcus aureus, 10165; K-10 agar, 10^4 CFU, 37°C, 18 hours; read-out: M.I.C.
Protocol: as §1, §2, §3, §6
as §5, with “The tables that follow are tabulated results obtained when the B-lactams of this invention are tested against various organisms. The number” for “The number”

[4] = tested on: Acinetobacter calcoaceticus, 8333; conditions: Acinetobacter calcoaceticus, 8333, 18 h, K-10 agar, 10^4 CFU, 37°C, read-out: M.I.C.
Protocol: as §1, §2, §3, §6
as §5, with “The tables that follow are tabulated results obtained when the B-lactams of this invention are tested against various organisms. The number” for “The number”

Escherichia coli, 10896 = conditions: K-10 agar, 10^4 CFU, 37°C, 18 hours
Protocol: as §1, §2, §3, §6
as §5, with “The tables that follow are tabulated results obtained when the B-lactams of this invention are tested against various organisms. The number” for “The number”

Proteus vulgaris, 9416 = conditions: K-10 agar, 10^4 CFU, 37°C
Protocol: as §1, §2, §3, §6
as §5, with “The tables that follow are tabulated results obtained when the B-lactams of this invention are tested against various organisms. The number” for “The number”

[5] = tested on: Serratia marcescens, 9783; conditions: Serratia marcescens, 9783, 18 h, K-10 agar, 10^4 CFU, 37°C, read-out: M.I.C.
Protocol: as §1, §2, §3, §6
as §5, with “The tables that follow are tabulated results obtained when the B-lactams of this invention are tested against various organisms. The number” for “The number”

[6] = tested on: Staphylococcus aureus, 1276; conditions: Staphylococcus aureus, 1276; K-10 agar, 10^4 CFU, 37°C, 18 hours; read-out: M.I.C.
Protocol: as §1, §2, §3, §6
as §5, with “The tables that follow are tabulated results obtained when the B-lactams of this invention are tested against various organisms. The number” for “The number”

[7] = tested on: Staphylococcus aureus, 2399; conditions: Staphylococcus aureus, 2399, 18 h, Staphylococcus aureus, 2399; K-10 agar, 10^4 CFU, 37°C, 18 hours; read-out: M.I.C.
Protocol: as §1, §2, §3, §6
as §5, with “The tables that follow are tabulated results obtained when the B-lactams of this invention are tested against various organisms. The number” for “The number”

Escherichia coli, 10909 = conditions: K-10 agar, 10^4 CFU, 37°C, 18 hours
Protocol: as §1, §2, §3, §6
as §5, with “The tables that follow are tabulated results obtained when the B-lactams of this invention are tested against various organisms. The number” for “The number”

[8] = tested on: Pseudomonas aeruginosa, 8329; conditions: K-10 agar, 10^4 CFU, 37°C, 18 hours, read-out: M.I.C.
Protocol: as §1, §2, §3, §6
as §5, with “The tables that follow are tabulated results obtained when the B-lactams of this invention are tested against various organisms. The number” for “The number”

[9] = tested on: Pseudomonas aeruginosa, 9545; conditions: Pseudomonas aeruginosa, 9545, 18 h, K-10 agar, 10^4 CFU, 37°C, read-out: M.I.C.
Protocol: as §1, §2, §3, §6
as §5, with “The tables that follow are tabulated results obtained when the B-lactams of this invention are tested against various organisms. The number” for “The number”

Shigella sonnei, 8449 = conditions: Shigella sonnei, 8449, 18 h, K-10 agar, 10^4 CFU, 37°C
Protocol: as §1, §2, §3, §6
as §5, with “The tables that follow are tabulated results obtained when the B-lactams of this invention are tested against various organisms. The number” for “The number”

[10] = tested on: Streptococcus faecalis, 9011; conditions: Enterococcus faecalis; Streptococcus faecalis, 9011; K-10 agar, 10^4 CFU, 37°C, 18 hours; read-out: M.I.C.
Protocol: as §1, §2, §3, §6
as §5, with “The tables that follow are tabulated results obtained when the B-lactams of this invention are tested against various organisms. The number” for “The number”

[11] = tested on: Klebsiella pneumoniae, 9527; conditions: Klebsiella pneumoniae, 9527, 18 h, K-10 agar, 10^4 CFU, 37°C, read-out: M.I.C.
Protocol: as §1, §2, §3, §6
as §5, with “The tables that follow are tabulated results obtained when the B-lactams of this invention are tested against various organisms. The number” for “The number”

Proteus mirabilis, 3855 = conditions: Proteus mirabilis, 3855, 18 h, K-10 agar, 10^4 CFU, 37°C
Protocol: as §1, §2, §3, §6
as §5, with “The tables that follow are tabulated results obtained when the B-lactams of this invention are tested against various organisms. The number” for “The number”

Salmonella typhosa, 1195 = conditions: Salmonella enterica, TYPHOSA, 18 h, K-10 agar, 10^4 CFU, 37°C
Protocol: as §1, §2, §3, §6
as §5, with “The tables that follow are tabulated results obtained when the B-lactams of this invention are tested against various organisms. The number” for “The number”

Escherichia coli, 8294 = conditions: Escherichia coli, 8294, 18 h, K-10 agar, 10^4 CFU, 37°C
Protocol: as §1, §2, §3, §6
as §5, with “The tables that follow are tabulated results obtained when the B-lactams of this invention are tested against various organisms. The number” for “The number”

[12] = tested on: Enterobacter aerogenes, 10078; conditions: Klebsiella aerogenes, 10078, 18 h, Enterobacter aerogenes, 10078; K-10 agar, 10^4 CFU, 37°C, 18 hours; read-out: M.I.C.
Protocol: as §1, §2, §3, §6
as §5, with “The tables that follow are tabulated results obtained when the B-lactams of this invention are tested against various organisms. The number” for “The number”

Proteus rettgeri, 8479 = conditions: Providencia rettgeri, K-10 agar, 10^4 CFU, 37°C, 18 hours, read-out: M.I.C.
Protocol: as §1, §2, §3, §6
as §5, with “The tables that follow are tabulated results obtained when the B-lactams of this invention are tested against various organisms. The number” for “The number”

[13] = tested on: Staphylococcus aureus, 2400; conditions: Staphylococcus aureus, 2400; K-10 agar, 10^4 CFU, 37°C, 18 hours; read-out: M.I.C.
Protocol: as §1, §2, §3, §6
as §5, with “The tables that follow are tabulated results obtained when the B-lactams of this invention are tested against various organisms. The number” for “The number”

[14] = tested on: Citrobacter freundii, 9518; conditions: K-10 agar, 10^4 CFU, 37°C, 18 hours, read-out: M.I.C.
Protocol: as §1, §2, §3, §6
as §5, with “The tables that follow are tabulated results obtained when the B-lactams of this invention are tested against various organisms. The number” for “The number”

[15] = tested on: Klebsiella aerogenes, 10440; conditions: K-10 agar, 10^4 CFU, 37°C, 18 hours, read-out: M.I.C.
Protocol: as §1, §2, §3, §6
as §5, with “The tables that follow are tabulated results obtained when the B-lactams of this invention are tested against various organisms. The number” for “The number”

| Compound | MIC (Micrococcus luteus, 2495) [µg/mL] | MIC [1] [µg/mL] | MIC [2] [µg/mL] | MIC (Escherichia coli, 10857) [µg/mL] | MIC [3] [µg/mL] | MIC [4] [µg/mL] | MIC (Escherichia coli, 10896) [µg/mL] | MIC [5] [µg/mL] | MIC [6] [µg/mL] | MIC [7] [µg/mL] | MIC (Escherichia coli, 10909) [µg/mL] | MIC [8] [µg/mL] | MIC [9] [µg/mL] | MIC (Shigella sonnei, 8449) [µg/mL] | MIC [10] [µg/mL] | MIC [11] [µg/mL] | MIC (Salmonella typhosa, 1195) [µg/mL] | MIC (Escherichia coli, 8294) [µg/mL] | MIC [12] [µg/mL] | MIC (Proteus rettgeri, 8479) [µg/mL] | further results |
| --- | --- | --- | --- | --- | --- | --- | --- | --- | --- | --- | --- | --- | --- | --- | --- | --- | --- | --- | --- | --- | --- |
| CC1C(NC(=O)C(NC(=O)C(N)=O)c2cccs2)C(=O)N1S(=O)(=O)O (racemic) [Example 14, [3S-[3α(±),4β]]-3-[[[(aminooxoacetyl)amino]-2-thienylacetyl]amino]-4-methyl-2-oxo-1-azetidine-sulfonic acid, potassium salt] | 12.5 | 3.1 | 3.1 | 0.4 | > 100 | 100 | 1.6 | 3.1 | 50 | 50 | 0.8 | 100 | 3.1 | 0.8 | > 100 | 1.6 | 0.8 | 1.6 | 3.1 | 0.8 | MIC (Proteus vulgaris, 9416; 18 hours, read-out: M.I.C.): 0.8 µg/mL; MIC (Proteus mirabilis, 3855; read-out: M.I.C.): 0.8 µg/mL; MIC [13]: 100 µg/mL; MIC [14]: 1.6 µg/mL; MIC [15]: 3.1 µg/mL |
| CO/N=C(\C(=O)NC1C(=O)N(S(=O)(=O)O)C1(C)C)c1csc(N)n1 (racemic) [Example 25, [3±(Z)]-3-[[(2-Amino-4-thiazolyl) (methoxyimino)-acet^yl]amino]-4,4-dimethyl-2-oxo-1-azetidinesulfonic acid, potassium salt] | > 100 | 100 | > 100 | 6.3 | > 100 | > 100 | 25 | 100 | > 100 | > 100 | 25 | > 100 | > 100 | 25 | > 100 | 6.3 | 12.5 | 50 | 100 | 0.8 | MIC (Proteus vulgaris, 9416; Proteus vulgaris, 9416, 18 h): 12.5 µg/mL; MIC (Proteus mirabilis, 3855): 12.5 µg/mL; MIC [13]: > 100 µg/mL; MIC [14]: 25 µg/mL; MIC [15]: 100 µg/mL |
| CC1(C)C(NC(=O)Cc2ccccc2)C(=O)N1S(=O)(=O)O (racemic) [Example 26, (±)-4,4-Dimethyl-2-oxo-3-[(phenylacetyl)amino]-1-azetidinesulfonic acid, potassium salt] | > 100 | > 100 | > 100 | 50 | > 100 | > 100 | > 100 | > 100 | > 100 | > 100 | > 100 | > 100 | > 100 | > 100 | > 100 | > 100 | > 100 | > 100 | > 100 | 100 | MIC (Proteus vulgaris, 9416; 18 hours, read-out: M.I.C.): 100 µg/mL; MIC (Proteus mirabilis, 3855; read-out: M.I.C.): > 100 µg/mL; MIC [13]: > 100 µg/mL; MIC [14]: > 100 µg/mL; MIC [15]: > 100 µg/mL |
